As a reminder, the MIC is the least concentration at which growth counts as inhibited. A higher MIC goes with weaker potency.

Results on two molecules are retold here after article PMC9106035, “Synthesis, X-ray Structure and Biological Studies of New Self-Assembled Cu(II) Complexes Derived from s-Triazine Schiff Base Ligand” (Molecules, 2022).

Common to all, as to format: cell-based
Test [1] concerns A. fumigatus (RCMB 002008). Nature of the test: Agar well diffusion, inhibition zone. As to conditions: 10 mg/mL of the tested compounds. The protocol:
(§1) The antimicrobial activity of the free ligands and the corresponding Cu(II) complexes was determined against different categories of microbes (Table 5). All inhibition zones were determined at 10 mg/mL of the tested compounds. […] The largest inhibition zones were found for B. subtilis (25 mm), which is very close to the standard Gentamycin (26 mm). […] Complex 1 evidenced antimicrobial activity against all microbes except C. albicans.
(§2) Method S2: Antimi crobial studies a) Tested pathogenic microbes
(§3) The antibacterial a ctivity of the studied ligands and their Cu(II) complexes were evaluated against two Gram positive bacteria ((S. aureus (ATCC 25923) and B. subtilis (RCMB015(1)NRR LB-543)), two Gram negatvie bacteria ((E. coli (ATCC 25922) and P. vulgaris (RCMB 004(1)ATCC 13315)) and two fungi ((A. fumigatus […]
was used as standard antibacterial agent. The samples maintained in Brain heart infusion (BHI) at 20 °C; […] of each stock–c ulture was added to 3 mL of BHI […]
broth. […]
(§4) 0.5). In case of fungi A. fumigatus (RCMB 002008) and C. albicans (RCMB 005003(1) ATCC 10231), the used medium in antagonistic activity against tested fungi is Potato Dextrose Agar, where Fluconazole was used standard antifungal agent. b) Agar well diffusion method
(§5) Synthetic compounds were prepared at concentration 10 mg/mL dissolved in DMSO as stock solutions. Preparation of sterilized Mueller Hinton agar plates seeded with tested pathogenic b acteria occurred. The wells are done by sterilized cork borer in size […]
(§6) comparably with DMSO as control. The plates were incubated at 37°C for 24 h. after incubation period; antimicrobial activity was d etermined by inhibition zones. […]
(Agar diffusion results depend on both activity and mobility in agar.)

Test [2] has as its system B. subtilis (RCMB015(1)NRR LB-543). Nature of the test: Minimum Inhibitory Concentration (MIC). The protocol: as §2, §3
(§7) was used as standard antibacterial agent. The samples maintained in Brain heart infusion (BHI) at 20 °C; […] of each stock–c ulture was added to 3 mL of BHI broth. Overnight cultures were kept for 24 h at 37 °C ± 1 °C and the purity of cultures was checked aft er 24 h of incubation. […]
(§8) c) Minimum Inhibitory Concentration (MIC)
(§9) Different dilutions of the compounds are inoculat ed with tested pathogenic microbes.
(§10) After incubation period of 96 well microplate, the results are meas ured using microplate reader. To determine at what level the MIC endpoint is established; subculture of test samples at different concentrati ons occurred in nutrient agar plates.

Test [3] deals with S. aureus (ATCC 25923). Nature of the test: Minimum Inhibitory Concentration (MIC). Here is the method:
as §2, §3, §7, §8, §9, §10

The subject of test [4] is P. vulgaris (RCMB 004(1)ATCC 13315). Nature of the test: Minimum Inhibitory Concentration (MIC). Here is the method: as §2, §3, §7, §8, §9, §10
Test [5] concerns E. coli (ATCC 25922). Nature of the test: Minimum Inhibitory Concentration (MIC). The protocol: as §2, §3, §7, §8, §9, §10
Test [6] has as its system C. albicans (RCMB 005003(1) ATCC 10231). Description: Agar well diffusion, inhibition zone. As to conditions: 10 mg/mL of the tested compounds. Here is the method:
as §1, §2
(§11) The antibacterial a ctivity of the studied ligands and their Cu(II) complexes were evaluated against two Gram positive bacteria ((S. aureus (ATCC 25923) and B. […]
as §4, §5, §6

For test [7] the test system is unchanged. Nature of the test: Minimum Inhibitory Concentration (MIC). Here is the method: as §2, §11
(§12) 0.5). In case of fungi A. fumigatus (RCMB 002008) and C. albicans (RCMB 005003(1) ATCC 10231), the used medium in antagonistic activity against tested fungi is Potato Dextrose Agar, where Fluconazole was used standard antifungal agent. […]
as §8, §9, §10

Test [8] concerns A. fumigatus (RCMB 002008). Nature of the test: Minimum Inhibitory Concentration (MIC). The protocol: as §2, §11, §12, §8, §9, §10
The test system of test [9] is B. subtilis (RCMB015(1)NRR LB-543). Description: Agar well diffusion, inhibition zone. As to conditions: 10 mg/mL of the tested compounds. Here is the method:
as §1, §2, §3, §7
(§13) b) Agar well diffusion method
as §5, §6

Test [10] has as its system S. aureus (ATCC 25923). Description: Agar well diffusion, inhibition zone. Particulars: 10 mg/mL of the tested compounds. Here is the method:
as §1, §2, §3, §7, §13, §5, §6

The test system of test [11] is P. vulgaris (RCMB 004(1)ATCC 13315). Description: Agar well diffusion, inhibition zone. As to conditions: 10 mg/mL of the tested compounds. The protocol:
as §1, §2, §3, §7, §13, §5, §6

Test [12] deals with E. coli (ATCC 25922). Description: Agar well diffusion, inhibition zone. Particulars: 10 mg/mL of the tested compounds. The protocol:
as §1, §2, §3, §7, §13, §5, §6

Structures are written as SMILES.

In the case of `CC(=NNc1nc(N2CCOCC2)nc(N2CCOCC2)n1)c1ccccc1[O-].CC(=O)[O-].[Cu+2]` [Complex 2, [Cu(DMOT)(CH3COO)]], the Inhibition zone diameters amounted to 15 mm in test [1]; 10 mm in [6]; 25 mm in [9]; 11 mm in the test with S. aureus (ATCC 25923) [10]; 15 mm in [11]; 14 mm in the test on E. coli (ATCC 25922) [12]. Moreover, the MIC was found to be 39.06 µg/mL in test [2]; 1250 µg/mL against S. aureus (ATCC 25923) [3]; 1250 µg/mL in [4]; 1250 µg/mL in the test with E. coli (ATCC 25922) [5]; 5000 µg/mL in test [7]; 625 µg/mL in test [8].

On to `CC(=NNc1nc(N2CCOCC2)nc(N2CCOCC2)n1)c1ccccc1[O-].O=[N+]([O-])[O-].[Cu+2]` [Complex 3, [Cu(DMOT)(NO3)]], for which the Inhibition zone diameters entry is recorded as “no antifungal activity” in [1]; “no antifungal activity” in test [6]; 24 mm in test [9]; 12 mm in the test with S. aureus (ATCC 25923) [10]; 13 mm in [11]; 15 mm in the test on E. coli (ATCC 25922) [12]. Also, the minimum inhibitory concentration (MIC) in test [2] was 78.125 µg/mL; in the test on S. aureus (ATCC 25923) [3], 1250 µg/mL; in [4], 1250 µg/mL; with E. coli (ATCC 25922) [5] it was 312.5 µg/mL.
